In data set [1] the test system is iCell Hepatocytes.
The test system of data set [2] is CYP1A2. Description: P450-GLO CYP1A2 assay, drug-induced CYP activity in 3-D microtissue of iCell Hepatocytes. The conditions noted are these: day 6 spheroids, 20% GELTREX, about 0.1 to 100 μM for about 24 hours.

`O=C(O)Cc1ccccc1Nc1c(Cl)cccc1Cl` [Diclofenac]: the hepatotoxicity response result in data set [1] is given as “Increased sensitivity”.

Take `COc1ccc2[nH]c([S+]([O-])Cc3ncc(C)c(OC)c3C)nc2c1` (stereo not drawn) [Omeprazole]: the “induction of CYP1A2 activity” value in data set [2] is on record as “about 2.5 fold”.

For the molecule `Cc1ccc(C(=O)c2cc(O)c(O)c([N+](=O)[O-])c2)cc1` [Tolcapone], the hepatotoxicity response entry in data set [1] was “Increased sensitivity”.
